The nature of data set [1]: Hemolytic activity in human O+ erythrocytes after 1 hr by spectrophotometry. It counts as ADME, cell-based, Erythrocyte. The note with it: for HC50 at 1 h: human O+ erythrocytes.
Data set [2] relates to Leishmania amazonensis. Put plainly: Antileishmanial activity against Leishmania amazonensis IFLA/BR/67/PH8 promastigotes assessed as parasite growth inhibition incubated for 72 hrs using neubauer chamber by microscopic analysis. It counts as functional, organism-based. To be noted: IFLA/BR/67/PH8, 72 h.
The nature of data set [3]: Selectivity index, ratio of HC50 for human O+ erythrocytes to IC50 for Leishmania amazonensis IFLA/BR/67/PH8 promastigotes.
For data set [4], the system named is Leishmania amazonensis. Briefly: Induction of genomic DNA fragmentation in Leishmania amazonensis IFLA/BR/67/PH8 promastigotes at 1 to 4 times antileishmanial IC50 after overnight incubation by GelRed staining based agarose gel electrophoresis. It counts as functional, organism-based.
The subject of data set [5] is Leishmania amazonensis. Briefly: Antileishmanial activity against trivalent antimony-resistant Leishmania amazonensis IFLA/BR/67/PH8 promastigotes assessed as parasite growth inhibition incubated for 72 hrs using neubauer chamber by microscopic analysis. It counts as functional, organism-based. The note with it: IFLA/BR/67/PH8, 72 h.

≈ marks a conversion by molar mass, not a printed value. Calls of active or inactive are those of the source. The rule behind the calls is not given here.

As to `Cc1ccc2[nH]cc(/C=N/c3sc4c(c3C#N)CCCCC4)c2c1`, the HC50 – broadly, the concentration giving 50% haemolysis – at 1 h in data set [1] is above 400 µg/mL. For the same molecule, the IC50 (as a rule, the concentration that inhibits the measured activity by half) with Leishmania amazonensis [2] worked out at 6.1 µg/mL (≈ 18.3 µM). For the same molecule, the “Selectivity Index” value in data set [3] is recorded as above 65.6.

Consider `N#Cc1c(/N=C/c2c[nH]c3cccc([N+](=O)[O-])c23)sc2c1CCCC2`, for which the HC50 at 1 h in data set [1] was above 400 µg/mL. In addition, the IC50 with Leishmania amazonensis [2] stood at 299 µg/mL (≈ 853 µM). Also, the “Selectivity Index” value in data set [3] was above 1.3.

With `N#Cc1c(/N=C/c2c[nH]c3c2ccc2ccccc23)sc2c1CCCC2`, in data set [1], the HC50 at 1 h is above 400 µg/mL. Also, in the data set with Leishmania amazonensis [2], the half-inhibitory concentration (IC50) was determined as 29.7 µg/mL (≈ 83.6 µM). For the same molecule, the “Selectivity Index” value in data set [3] was above 13.5.

In turn, `N#Cc1c(/N=C/c2c[nH]c3ccccc23)sc2c1CCCC2` yielded an HC50 at 1 h in data set [1] above 400 µg/mL. Besides, the 50% inhibitory concentration (IC50) in the data set with Leishmania amazonensis [2] is 4.5 µg/mL (≈ 14.7 µM). In data set [3], the “Selectivity Index” value is listed as above 88.8.

Turning to `N#Cc1c(/N=C/c2c[nH]c3cccc([N+](=O)[O-])c23)sc2c1CCC2`, the IC50 in the data set on Leishmania amazonensis [2] came to 171 µg/mL (≈ 509 µM).

With `N#Cc1c(/N=C/c2c[nH]c3ncccc23)sc2c1CCC2`, the HC50 at 1 h in data set [1] is above 400 µg/mL. Further, the half-maximal inhibitory concentration (IC50) in the data set with Leishmania amazonensis [2] came out at 289 µg/mL (≈ 988 µM). Also, the “Selectivity Index” value in data set [3] was above 1.4.

In data set [1], `N#Cc1ccc2[nH]cc(/C=N/c3sc4c(c3C#N)CCCC4)c2c1` had an HC50 at 1 h above 400 µg/mL. Besides, in the data set on Leishmania amazonensis [2], the IC50 is 4.7 µg/mL (≈ 14.2 µM). The “Selectivity Index” value in data set [3] is given as above 84.7.

In data set [1], `COc1ccc2[nH]cc(/C=N/c3sc4c(c3C#N)CCCC4)c2c1` registered an HC50 at 1 h above 400 µg/mL. In the data set with Leishmania amazonensis [2], the IC50 came to 6 µg/mL (≈ 17.9 µM). For the same molecule, the “Selectivity Index” value in data set [3] is given as above 66.8.

Regarding `C[C@@H]1[C@H](O)[C@@H](C)/C=C/C=C/C=C/C=C/C=C/C=C/C=C/[C@H](O[C@@H]2O[C@H](C)[C@@H](O)[C@H](N)[C@@H]2O)C[C@@H]2O[C@](O)(C[C@@H](O)C[C@@H](O)[C@H](O)CC[C@@H](O)C[C@@H](O)CC(=O)O[C@H]1C)C[C@H](O)[C@H]2C(=O)O` [AMPHOTERICIN B], the concentration for 50% haemolysis (HC50) at 1 h in data set [1] amounted to 22.4 µg/mL. In the data set with Leishmania amazonensis [2], the half-inhibitory concentration (IC50) was determined as 0.2 µg/mL (≈ 0.216 µM). The “Selectivity Index” value in data set [3] is 124.5.

With `N#Cc1c(/N=C/c2c[nH]c3cccc([N+](=O)[O-])c23)sc2c1CCCCC2`, in data set [1], the HC50 at 1 h was above 400 µg/mL. Moreover, in the data set on Leishmania amazonensis [2], the half-inhibitory concentration (IC50) was determined as 1070 µg/mL (≈ 2930 µM). Also, the “Selectivity Index” value in data set [3] was above 0.3.

Consider `N#Cc1c(/N=C/c2c[nH]c3ncccc23)sc2c1CCCCCC2`, for which, in data set [1], the HC50 at 1 h was above 400 µg/mL. Also, the 50% inhibitory concentration (IC50) in the data set with Leishmania amazonensis [2] is 651 µg/mL (≈ 1950 µM). For the same molecule, the “Selectivity Index” value in data set [3] is above 0.6.

With `N#Cc1ccc2[nH]cc(/C=N/c3sc4c(c3C#N)CCCCCC4)c2c1`, the outcome with Leishmania amazonensis [4] was Active. Besides, the HC50 at 1 h in data set [1] is above 400 µg/mL. Besides, the figures for the IC50 with Leishmania amazonensis [2] and with Leishmania amazonensis [5] were 2.1 µg/mL (≈ 5.86 µM) and 2.8 µg/mL (≈ 7.81 µM), respectively. Also, the “Selectivity Index” value in data set [3] was above 193.2.

With `COc1ccc2[nH]cc(/C=N/c3sc4c(c3C#N)CCCCC4)c2c1`, the HC50 at 1 h in data set [1] was above 400 µg/mL. Also, the IC50 in the data set on Leishmania amazonensis [2] amounted to 10.2 µg/mL (≈ 29.2 µM). Besides, the “Selectivity Index” value in data set [3] was above 39.1.

Regarding `Cc1cccc2c(/C=N/c3sc4c(c3C#N)CCCCCC4)c[nH]c12`, the 50% haemolytic concentration (HC50) at 1 h in data set [1] is above 400 µg/mL. The half-inhibitory concentration (IC50) in the data set with Leishmania amazonensis [2] turned out to be 4.1 µg/mL (≈ 11.8 µM). Further, the “Selectivity Index” value in data set [3] was above 96.6.

As for `Cc1ccc2[nH]cc(/C=N/c3sc4c(c3C#N)CCCCCC4)c2c1`, in data set [1], the 50% haemolytic concentration (HC50) at 1 h is above 400 µg/mL. For the same molecule, the half-inhibitory concentration (IC50) in the data set with Leishmania amazonensis [2] came to 6.5 µg/mL (≈ 18.7 µM). Also, the “Selectivity Index” value in data set [3] is on record as above 61.3.

In turn, `Cc1ccc2[nH]cc(/C=N/c3sc4c(c3C#N)CCCC4)c2c1` came in with a concentration for 50% haemolysis (HC50) at 1 h in data set [1] above 400 µg/mL. Further, in the data set on Leishmania amazonensis [2], the IC50 is 2.3 µg/mL (≈ 7.2 µM). Moreover, the “Selectivity Index” value in data set [3] is recorded as above 172.4.

In data set [1] (erythrocyte, 1 h), “MEGLUMINE ANTIMONATE [listing 1 of 2 here]” displayed an HC50 of 681.2 µg/mL.

Consider “MEGLUMINE ANTIMONATE [listing 2 of 2 here]”, for which the Selectivity Index in data set [3] came out at 0.02.

`Cc1cccc2c(/C=N/c3sc4c(c3C#N)CCCCC4)c[nH]c12` displayed an HC50 at 1 h in data set [1] above 400 µg/mL. Moreover, the half-inhibitory concentration (IC50) with Leishmania amazonensis [2] came out at 786 µg/mL (≈ 2360 µM). Moreover, the “Selectivity Index” value in data set [3] is on record as above 0.5.

Regarding Potassium antimonyl tartrate trihydrate, the Selectivity Index in data set [3] was 38.2.

Molecule `N#Cc1ccc2[nH]cc(/C=N/c3sc4c(c3C#N)CCCCC4)c2c1` gave a 50% haemolytic concentration (HC50) at 1 h in data set [1] above 400 µg/mL. In addition, the IC50 with Leishmania amazonensis [2] was 3.4 µg/mL (≈ 9.87 µM). The “Selectivity Index” value in data set [3] is given as above 115.6.

In turn, `N#Cc1c(/N=C/c2c[nH]c3cccc([N+](=O)[O-])c23)sc2c1CCCCCC2` came in with a 50% haemolytic concentration (HC50) at 1 h in data set [1] above 400 µg/mL. Moreover, in the data set on Leishmania amazonensis [2], the IC50 amounted to 9.4 µg/mL (≈ 24.8 µM). The “Selectivity Index” value in data set [3] is reported as above 42.5.

Regarding `N#Cc1c(/N=C/c2c[nH]c3ccccc23)sc2c1CCCCCC2`, in data set [1], the HC50 at 1 h is above 400 µg/mL. In addition, in the data set on Leishmania amazonensis [2], the IC50 stood at 5.4 µg/mL (≈ 16.2 µM). Besides, in data set [3], the “Selectivity Index” value was above 73.2.

`N#Cc1c(/N=C/c2c[nH]c3c2ccc2ccccc23)sc2c1CCC2` registered a 50% haemolytic concentration (HC50) at 1 h in data set [1] above 400 µg/mL. The IC50 in the data set with Leishmania amazonensis [2] worked out at 7.9 µg/mL (≈ 23.1 µM). The “Selectivity Index” value in data set [3] is recorded as above 50.7.

With `N#Cc1c(/N=C/c2c[nH]c3c2ccc2ccccc23)sc2c1CCCCCC2`, the HC50 at 1 h in data set [1] is above 400 µg/mL. In the data set with Leishmania amazonensis [2], the IC50 worked out at 9.4 µg/mL (≈ 24.5 µM). For the same molecule, the “Selectivity Index” value in data set [3] was above 42.6.

In data set [1], `N#Cc1c(/N=C/c2c[nH]c3ccccc23)sc2c1CCC2` yielded a 50% haemolytic concentration (HC50) at 1 h above 400 µg/mL. Moreover, the IC50 with Leishmania amazonensis [2] stood at 48.9 µg/mL (≈ 168 µM). The “Selectivity Index” value in data set [3] was above 8.2.

As to `COc1ccc2[nH]cc(/C=N/c3sc4c(c3C#N)CCC4)c2c1`, in data set [1], the HC50 at 1 h is above 400 µg/mL. For the same molecule, in the data set on Leishmania amazonensis [2], the half-maximal inhibitory concentration (IC50) stood at 125 µg/mL (≈ 388 µM). Further, the “Selectivity Index” value in data set [3] was above 3.2.

As for `N#Cc1ccc2[nH]cc(/C=N/c3sc4c(c3C#N)CCC4)c2c1`, the HC50 at 1 h in data set [1] was above 400 µg/mL. Besides, in the data set on Leishmania amazonensis [2], the half-maximal inhibitory concentration (IC50) was 7.4 µg/mL (≈ 23.4 µM). The “Selectivity Index” value in data set [3] was above 53.7.

`COc1ccc2[nH]cc(/C=N/c3sc4c(c3C#N)CCCCCC4)c2c1`: the 50% haemolytic concentration (HC50) at 1 h in data set [1] was above 400 µg/mL. The half-inhibitory concentration (IC50) in the data set on Leishmania amazonensis [2] amounted to 6.4 µg/mL (≈ 17.6 µM). Further, the “Selectivity Index” value in data set [3] is above 62.7.

Take `N#Cc1c(/N=C/c2c[nH]c3ncccc23)sc2c1CCCC2`: the concentration for 50% haemolysis (HC50) at 1 h in data set [1] was above 400 µg/mL. Further, the concentration for half-maximal inhibition (IC50) in the data set with Leishmania amazonensis [2] was found to be 228 µg/mL (≈ 744 µM). Besides, the “Selectivity Index” value in data set [3] is listed as above 1.7.

Turning to `N#Cc1c(/N=C/c2c[nH]c3ncccc23)sc2c1CCCCC2`, the concentration for 50% haemolysis (HC50) at 1 h in data set [1] is above 400 µg/mL. In addition, the 50% inhibitory concentration (IC50) with Leishmania amazonensis [2] stood at 8.7 µg/mL (≈ 27.2 µM). In data set [3], the “Selectivity Index” value is above 45.8.

For `Cc1cccc2c(/C=N/c3sc4c(c3C#N)CCC4)c[nH]c12`, the half-inhibitory concentration (IC50) in the data set on Leishmania amazonensis [2] was 91.6 µg/mL (≈ 300 µM).

As for `N#Cc1c(/N=C/c2c[nH]c3c2ccc2ccccc23)sc2c1CCCCC2`, the HC50 at 1 h in data set [1] was above 400 µg/mL. In addition, the concentration for half-maximal inhibition (IC50) with Leishmania amazonensis [2] amounted to 18.7 µg/mL (≈ 50.6 µM). Besides, the “Selectivity Index” value in data set [3] is above 21.4.

With `N#Cc1c(/N=C/c2c[nH]c3ccccc23)sc2c1CCCCC2`, the HC50 at 1 h in data set [1] was above 400 µg/mL. Further, the half-inhibitory concentration (IC50) in the data set with Leishmania amazonensis [2] turned out to be 3.2 µg/mL (≈ 10 µM). Also, the “Selectivity Index” value in data set [3] is above 124.6.

`Cc1cccc2c(/C=N/c3sc4c(c3C#N)CCCC4)c[nH]c12` showed an HC50 at 1 h in data set [1] above 400 µg/mL. In addition, the IC50 in the data set with Leishmania amazonensis [2] amounted to 322 µg/mL (≈ 1010 µM). The “Selectivity Index” value in data set [3] was above 1.2.

`Cc1ccc2[nH]cc(/C=N/c3sc4c(c3C#N)CCC4)c2c1` yielded an HC50 at 1 h in data set [1] above 400 µg/mL. In the data set on Leishmania amazonensis [2], the IC50 turned out to be 7.1 µg/mL (≈ 23.2 µM). Also, the “Selectivity Index” value in data set [3] was above 56.6.

The values above are taken from ChEMBL document CHEMBL3822385, “Antileishmanial activity of new thiophene-indole hybrids: Design, synthesis, biological and cytotoxic evaluation, and chemometric studies” (Bioorg Med Chem, 2016).
